# Measurements from ChEMBL document CHEMBL1909046, “DrugMatrix in vitro pharmacology data”.
# How the values were obtained:
# [1] = target: Tyrosine-protein kinase Fyn (Homo sapiens, UniProt P06241); assay: biochemical; format: cell-based, Insect cells;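 further: enzymatic inhibition of Fyn kinase activity measured with Poly(Glu:Tyr) as the phosphorylation substrate; in other assays of this panel Not Active means under 50% inhibition at 10 µM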
# Vasopressin V1a receptor = Vasopressin V1a receptor (Homo sapiens, UniProt P37288); format: cell membranes, Membrane; details: hek293; further: in other assays of this panel Not Active means under 50% inhibition at 10 µM
# Sequence of Vasopressin V1a receptor (P37288 whole entry): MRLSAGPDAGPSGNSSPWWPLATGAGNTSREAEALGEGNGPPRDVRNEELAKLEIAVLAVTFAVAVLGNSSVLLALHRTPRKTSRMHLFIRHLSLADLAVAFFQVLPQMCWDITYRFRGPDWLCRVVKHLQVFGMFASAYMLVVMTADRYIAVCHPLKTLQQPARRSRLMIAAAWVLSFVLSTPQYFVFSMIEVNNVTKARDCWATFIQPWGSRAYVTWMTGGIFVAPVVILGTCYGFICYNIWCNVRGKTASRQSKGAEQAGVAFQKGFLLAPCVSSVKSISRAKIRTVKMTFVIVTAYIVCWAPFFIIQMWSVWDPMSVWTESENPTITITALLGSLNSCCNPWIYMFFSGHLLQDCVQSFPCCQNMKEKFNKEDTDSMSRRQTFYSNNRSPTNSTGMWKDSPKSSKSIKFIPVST
# D(1A) dopamine receptor = D(1A) dopamine receptor (Homo sapiens, UniProt P21728); assay: DRUGMATRIX: Dopamine D1 radioligand binding (ligand: [3H] SCH-23390); format: cell membranes, Membrane; details: cho; Not Active = under 50% inhibition at 10 µM
# Sequence of D(1A) dopamine receptor (P21728 whole entry): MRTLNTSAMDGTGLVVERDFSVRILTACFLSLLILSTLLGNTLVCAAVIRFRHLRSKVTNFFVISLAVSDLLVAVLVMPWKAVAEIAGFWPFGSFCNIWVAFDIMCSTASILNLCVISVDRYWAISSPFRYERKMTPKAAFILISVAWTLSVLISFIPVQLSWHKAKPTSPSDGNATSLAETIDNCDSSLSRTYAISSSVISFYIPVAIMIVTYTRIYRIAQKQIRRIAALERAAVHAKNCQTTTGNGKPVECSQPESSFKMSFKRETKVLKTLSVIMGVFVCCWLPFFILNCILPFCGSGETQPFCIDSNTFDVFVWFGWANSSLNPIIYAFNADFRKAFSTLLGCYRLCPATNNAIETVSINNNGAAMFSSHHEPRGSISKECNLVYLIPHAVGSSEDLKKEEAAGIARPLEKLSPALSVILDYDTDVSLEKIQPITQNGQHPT
# [2] = target: T1, Alpha-1D adrenergic receptor (Homo sapiens, UniProt P25100); format: cell membranes, HEK293, Membrane; details: for Ki: read-out: Ki; on all read-outs here: in other assays of this panel Not Active means under 50% inhibition at 10 µM
# T1 sequence (P25100 whole entry): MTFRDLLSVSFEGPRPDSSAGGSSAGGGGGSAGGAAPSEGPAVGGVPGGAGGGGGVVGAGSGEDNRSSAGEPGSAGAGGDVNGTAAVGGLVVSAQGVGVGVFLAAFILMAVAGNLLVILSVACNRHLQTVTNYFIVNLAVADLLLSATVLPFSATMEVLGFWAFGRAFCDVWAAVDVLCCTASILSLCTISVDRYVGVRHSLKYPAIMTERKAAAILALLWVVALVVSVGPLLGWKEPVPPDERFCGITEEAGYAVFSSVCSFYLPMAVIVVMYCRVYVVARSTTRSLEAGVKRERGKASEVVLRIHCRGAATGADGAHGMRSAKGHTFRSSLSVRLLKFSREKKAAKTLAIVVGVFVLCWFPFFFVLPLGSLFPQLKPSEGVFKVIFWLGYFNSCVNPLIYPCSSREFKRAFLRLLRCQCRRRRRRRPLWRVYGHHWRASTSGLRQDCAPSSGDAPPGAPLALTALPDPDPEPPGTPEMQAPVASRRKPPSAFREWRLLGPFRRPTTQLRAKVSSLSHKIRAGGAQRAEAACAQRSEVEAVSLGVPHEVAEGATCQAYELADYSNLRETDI
# [3] = target: 5-hydroxytryptamine receptor 2B (Homo sapiens, UniProt P41595); format: cell membranes, CHO-K1, Membrane; details: cho-k1; further: in other assays of this panel Not Active means under 50% inhibition at 10 µM
# Sequence of 5-hydroxytryptamine receptor 2B (P41595 whole entry): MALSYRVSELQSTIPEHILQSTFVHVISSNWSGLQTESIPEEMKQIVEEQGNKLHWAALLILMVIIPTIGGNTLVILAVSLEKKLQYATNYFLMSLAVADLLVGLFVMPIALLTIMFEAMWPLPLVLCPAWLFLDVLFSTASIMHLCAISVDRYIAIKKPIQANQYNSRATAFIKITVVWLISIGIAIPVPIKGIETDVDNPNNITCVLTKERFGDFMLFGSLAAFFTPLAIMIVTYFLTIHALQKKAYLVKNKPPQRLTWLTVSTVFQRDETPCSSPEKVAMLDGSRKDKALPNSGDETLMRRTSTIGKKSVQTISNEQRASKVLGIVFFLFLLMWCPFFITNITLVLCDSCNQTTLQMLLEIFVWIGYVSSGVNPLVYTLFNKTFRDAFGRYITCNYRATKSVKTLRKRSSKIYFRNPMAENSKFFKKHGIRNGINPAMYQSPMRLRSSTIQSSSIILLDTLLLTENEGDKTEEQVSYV
# [4] = target: Matrix metalloproteinase-9 (Homo sapiens, UniProt P14780); assay: biochemical; format: cell-based
# Sequence of Matrix metalloproteinase-9 (P14780 whole entry): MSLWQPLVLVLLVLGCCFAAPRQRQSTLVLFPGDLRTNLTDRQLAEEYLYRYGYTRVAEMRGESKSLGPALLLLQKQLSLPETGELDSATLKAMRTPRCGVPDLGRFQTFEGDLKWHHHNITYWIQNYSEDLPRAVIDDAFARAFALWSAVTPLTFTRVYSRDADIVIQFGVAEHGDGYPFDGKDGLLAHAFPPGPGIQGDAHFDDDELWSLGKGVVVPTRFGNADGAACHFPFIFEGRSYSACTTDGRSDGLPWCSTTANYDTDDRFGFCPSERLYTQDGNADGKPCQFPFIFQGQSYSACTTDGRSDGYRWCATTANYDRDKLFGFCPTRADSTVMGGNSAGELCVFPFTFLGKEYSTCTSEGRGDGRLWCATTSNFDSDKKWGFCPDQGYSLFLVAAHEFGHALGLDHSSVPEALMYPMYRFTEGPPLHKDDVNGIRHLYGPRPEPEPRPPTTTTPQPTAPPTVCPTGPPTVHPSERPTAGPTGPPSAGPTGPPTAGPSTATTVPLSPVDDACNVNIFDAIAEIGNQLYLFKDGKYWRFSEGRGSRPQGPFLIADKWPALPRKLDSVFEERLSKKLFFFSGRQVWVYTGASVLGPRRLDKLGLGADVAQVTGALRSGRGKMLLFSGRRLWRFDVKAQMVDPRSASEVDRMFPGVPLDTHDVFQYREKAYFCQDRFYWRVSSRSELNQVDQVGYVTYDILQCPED
# [5] = target: Receptor tyrosine-protein kinase erbB-2 (Homo sapiens, UniProt P04626); assay: biochemical; format: cell-based, Insect cells; details: insect cells
# Sequence of Receptor tyrosine-protein kinase erbB-2 (P04626 whole entry): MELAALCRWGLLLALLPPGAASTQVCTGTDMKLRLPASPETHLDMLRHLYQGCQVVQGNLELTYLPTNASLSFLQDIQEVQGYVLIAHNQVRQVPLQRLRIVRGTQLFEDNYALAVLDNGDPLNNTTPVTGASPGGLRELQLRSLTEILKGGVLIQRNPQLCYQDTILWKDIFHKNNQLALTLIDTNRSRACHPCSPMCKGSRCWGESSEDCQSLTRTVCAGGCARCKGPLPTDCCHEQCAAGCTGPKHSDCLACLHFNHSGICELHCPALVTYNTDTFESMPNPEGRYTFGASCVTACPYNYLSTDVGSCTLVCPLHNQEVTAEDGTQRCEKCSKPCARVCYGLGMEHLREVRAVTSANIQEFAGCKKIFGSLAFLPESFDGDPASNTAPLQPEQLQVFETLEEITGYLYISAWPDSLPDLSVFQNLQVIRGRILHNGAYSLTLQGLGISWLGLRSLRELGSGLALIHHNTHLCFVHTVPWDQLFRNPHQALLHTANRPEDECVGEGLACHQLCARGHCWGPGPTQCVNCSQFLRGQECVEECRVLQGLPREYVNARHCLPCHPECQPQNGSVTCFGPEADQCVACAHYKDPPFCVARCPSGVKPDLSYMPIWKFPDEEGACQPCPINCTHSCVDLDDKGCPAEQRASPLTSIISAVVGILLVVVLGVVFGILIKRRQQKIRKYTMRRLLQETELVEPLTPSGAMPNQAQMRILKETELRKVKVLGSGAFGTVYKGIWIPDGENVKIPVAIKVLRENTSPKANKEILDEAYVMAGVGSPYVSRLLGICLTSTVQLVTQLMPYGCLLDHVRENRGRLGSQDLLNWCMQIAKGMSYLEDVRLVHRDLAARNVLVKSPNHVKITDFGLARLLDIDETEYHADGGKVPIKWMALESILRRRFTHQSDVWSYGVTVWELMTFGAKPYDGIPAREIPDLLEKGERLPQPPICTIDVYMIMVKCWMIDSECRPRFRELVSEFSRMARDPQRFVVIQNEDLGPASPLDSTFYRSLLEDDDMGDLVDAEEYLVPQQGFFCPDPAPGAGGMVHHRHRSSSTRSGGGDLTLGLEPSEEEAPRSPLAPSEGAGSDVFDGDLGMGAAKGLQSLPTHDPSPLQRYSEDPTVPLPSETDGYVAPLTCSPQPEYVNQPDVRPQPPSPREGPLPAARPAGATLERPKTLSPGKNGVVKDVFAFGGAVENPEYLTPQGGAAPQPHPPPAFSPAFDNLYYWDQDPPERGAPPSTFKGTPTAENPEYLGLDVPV
# [6] = target: T2, Alpha-2A adrenergic receptor (Homo sapiens, UniProt P08913); format: cell membranes, Sf9, Membrane; further: in other assays of this panel Not Active means under 50% inhibition at 10 µM
# T2 sequence (P08913 whole entry): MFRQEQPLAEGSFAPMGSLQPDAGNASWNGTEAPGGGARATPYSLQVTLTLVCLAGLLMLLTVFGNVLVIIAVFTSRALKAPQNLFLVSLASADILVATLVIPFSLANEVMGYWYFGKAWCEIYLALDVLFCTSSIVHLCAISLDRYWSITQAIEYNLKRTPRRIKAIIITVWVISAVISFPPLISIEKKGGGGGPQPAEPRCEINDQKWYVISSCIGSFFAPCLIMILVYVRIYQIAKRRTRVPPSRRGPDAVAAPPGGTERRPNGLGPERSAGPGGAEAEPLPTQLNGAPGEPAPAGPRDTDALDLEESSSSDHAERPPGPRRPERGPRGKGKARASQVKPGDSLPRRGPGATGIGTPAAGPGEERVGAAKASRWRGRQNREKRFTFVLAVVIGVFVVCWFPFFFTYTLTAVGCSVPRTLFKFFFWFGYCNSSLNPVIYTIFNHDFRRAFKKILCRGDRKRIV
# Cytochrome P450 2D6 = Cytochrome P450 2D6 (Homo sapiens, UniProt P10635); details: bti-tn-5b1-4; further: in other assays of this panel Not Active means under 50% inhibition at 10 µM
# Sequence of Cytochrome P450 2D6 (P10635 whole entry): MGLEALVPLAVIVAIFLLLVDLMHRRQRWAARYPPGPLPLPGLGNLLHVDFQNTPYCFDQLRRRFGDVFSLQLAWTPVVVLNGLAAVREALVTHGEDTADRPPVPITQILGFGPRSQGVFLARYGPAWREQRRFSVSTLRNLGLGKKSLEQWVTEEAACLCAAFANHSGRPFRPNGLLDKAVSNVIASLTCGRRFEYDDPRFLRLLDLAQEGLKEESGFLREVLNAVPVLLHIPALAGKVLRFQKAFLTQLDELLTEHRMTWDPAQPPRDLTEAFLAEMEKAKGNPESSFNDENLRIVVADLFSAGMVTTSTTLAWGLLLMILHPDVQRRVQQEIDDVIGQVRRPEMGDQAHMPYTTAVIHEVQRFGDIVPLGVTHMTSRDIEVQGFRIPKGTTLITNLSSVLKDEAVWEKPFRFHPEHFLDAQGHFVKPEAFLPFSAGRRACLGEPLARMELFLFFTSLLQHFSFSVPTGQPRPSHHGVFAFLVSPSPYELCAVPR
# Cannabinoid receptor 1 = Cannabinoid receptor 1 (Homo sapiens, UniProt P21554); format: cell membranes, Chem-1, Membrane; further: in other assays of this panel Not Active means under 50% inhibition at 10 µM
# Sequence of Cannabinoid receptor 1 (P21554 whole entry): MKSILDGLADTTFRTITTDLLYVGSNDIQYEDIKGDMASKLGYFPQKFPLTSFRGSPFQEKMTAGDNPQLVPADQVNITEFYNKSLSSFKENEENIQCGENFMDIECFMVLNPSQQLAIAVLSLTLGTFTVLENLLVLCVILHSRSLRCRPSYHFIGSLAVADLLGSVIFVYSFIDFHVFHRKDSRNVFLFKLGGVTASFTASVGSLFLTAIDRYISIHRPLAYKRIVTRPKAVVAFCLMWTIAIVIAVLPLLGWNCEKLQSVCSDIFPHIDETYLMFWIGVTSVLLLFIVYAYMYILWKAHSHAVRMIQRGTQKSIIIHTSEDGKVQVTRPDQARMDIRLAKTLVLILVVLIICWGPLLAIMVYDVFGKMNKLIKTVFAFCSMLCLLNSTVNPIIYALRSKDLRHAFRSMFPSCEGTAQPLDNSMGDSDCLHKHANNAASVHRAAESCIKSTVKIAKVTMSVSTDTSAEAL
# [7] = DRUGMATRIX: Atrial Natriuretic Factor (ANF) radioligand binding (ligand: [125I] ANF (rat)); format: cell membranes, Cavia porcellus, Dunkin-Hartley, Adrenal gland, Membrane; details: Not Active = under 50% inhibition at 10 µM
# Sequence of Tyrosine-protein kinase Fyn (P06241 whole entry): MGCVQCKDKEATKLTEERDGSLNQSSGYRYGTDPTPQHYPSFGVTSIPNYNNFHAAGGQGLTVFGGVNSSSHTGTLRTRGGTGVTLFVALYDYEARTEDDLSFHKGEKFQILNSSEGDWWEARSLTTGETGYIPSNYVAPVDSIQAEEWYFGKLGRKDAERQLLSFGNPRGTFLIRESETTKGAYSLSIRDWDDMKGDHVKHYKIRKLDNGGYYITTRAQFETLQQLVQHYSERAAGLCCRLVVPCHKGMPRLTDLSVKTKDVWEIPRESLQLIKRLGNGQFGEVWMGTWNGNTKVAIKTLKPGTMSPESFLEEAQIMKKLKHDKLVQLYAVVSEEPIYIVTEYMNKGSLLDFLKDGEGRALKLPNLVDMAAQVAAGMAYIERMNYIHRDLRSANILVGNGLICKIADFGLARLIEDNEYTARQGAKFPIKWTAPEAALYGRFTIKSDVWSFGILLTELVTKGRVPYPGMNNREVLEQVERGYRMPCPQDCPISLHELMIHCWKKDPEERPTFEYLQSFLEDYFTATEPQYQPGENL
SMILES,IC50 ([1]; insect cells),IC50 (Vasopressin V1a receptor),IC50 (D(1A) dopamine receptor),IC50 ([2]; hek293),IC50 [3],IC50 [4],IC50 [5],IC50 ([6]; sf9),IC50 (Cytochrome P450 2D6),Ki (Cytochrome P450 2D6),IC50 (Cannabinoid receptor 1; chem-1),IC50 [7],Ki [7],IC50 ([2]; read-out: IC50),Ki [2],IC50 ([6]; read-out: IC50),Ki ([6]; read-out: Ki),IC50 ([1]; read-out: IC50),IC50 (Cannabinoid receptor 1; read-out: IC50),Ki (Cannabinoid receptor 1; read-out: Ki)
Cc1cc(C)nc(NS(=O)(=O)c2ccc(N)cc2)n1 [SULFAMETHAZINE],Not Active,Not Active,Not Active,Not Active,Not Active,Not Active,Not Active,Not Active,Not Active,Not Active,Not Active,Not Active,Not Active,,,,,,,
CN1CCC(=C2c3ccccc3C=Cc3ccccc32)CC1 [CYPROHEPTADINE],Not Active,Not Active,,,,Not Active,Not Active,,Not Active,Not Active,Not Active,,,107 nM,53 nM,,,,,
CNC(=C[N+](=O)[O-])NCCSCc1ccc(CN(C)C)o1 [RANITIDINE],Not Active,Not Active,Not Active,Not Active,Not Active,Not Active,Not Active,Not Active,Not Active,Not Active,Not Active,Not Active,Not Active,,,,,,,
CC(=O)N1CCN(c2ccc(OCC3COC(Cn4ccnc4)(c4ccc(Cl)cc4Cl)O3)cc2)CC1 (configuration not stated) [KETOCONAZOLE],Not Active,Not Active,Not Active,Not Active,Not Active,Not Active,Not Active,,,,Not Active,Not Active,Not Active,,,19800 nM,7420 nM,,,
CC(C)CC(N(C)C)C1(c2ccc(Cl)cc2)CCC1 (configuration not stated) [SIBUTRAMINE],Not Active,Not Active,Not Active,Not Active,Not Active,Not Active,Not Active,Not Active,Not Active,Not Active,Not Active,Not Active,Not Active,,,,,,,
Cc1onc(-c2ccccc2)c1-c1ccc(S(N)(=O)=O)cc1 [VALDECOXIB],Not Active,Not Active,Not Active,Not Active,Not Active,Not Active,Not Active,Not Active,Not Active,Not Active,Not Active,Not Active,Not Active,,,,,,,
CC/C(=C(/CC)c1ccc(O)cc1)c1ccc(O)cc1 [DIETHYLSTILBESTROL],,,,,,Not Active,Not Active,,Not Active,Not Active,Not Active,,,10800 nM,5320 nM,,,14200 nM,,
C[C@]1(Cn2ccnn2)[C@H](C(=O)O)N2C(=O)C[C@H]2S1(=O)=O [TAZOBACTAM],Not Active,Not Active,Not Active,Not Active,Not Active,Not Active,Not Active,Not Active,Not Active,Not Active,Not Active,Not Active,Not Active,,,,,,,
COCCOC(=O)C1=C(C)NC(C)=C(C(=O)OC(C)C)C1c1cccc([N+](=O)[O-])c1 (configuration not stated) [NIMODIPINE],Not Active,Not Active,Not Active,Not Active,Not Active,Not Active,Not Active,Not Active,,,,Not Active,Not Active,,,,,,1740 nM,1370 nM
Cc1cccc(Nc2ccncc2S(=O)(=O)NC(=O)NC(C)C)c1 [TORSEMIDE],Not Active,Not Active,Not Active,Not Active,Not Active,Not Active,Not Active,Not Active,Not Active,Not Active,Not Active,Not Active,Not Active,,,,,,,
[Cl-].[Cl-].[Zn+2] [ZINC CHLORIDE],,Not Active,Not Active,Not Active,Not Active,Not Active,Not Active,Not Active,Not Active,Not Active,Not Active,Not Active,Not Active,,,,,1880 nM,,
C=CCN1CC[C@]23c4c5ccc(O)c4O[C@H]2C(=O)CC[C@@]3(O)[C@H]1C5 [NALOXONE],Not Active,Not Active,,Not Active,Not Active,Not Active,Not Active,Not Active,,,Not Active,,,,,,,,,
CN1C(C(=O)Nc2ccccn2)=C(O)c2sccc2S1(=O)=O [TENOXICAM],Not Active,Not Active,Not Active,Not Active,Not Active,Not Active,Not Active,Not Active,Not Active,Not Active,Not Active,Not Active,Not Active,,,,,,,
COc1cc(NS(=O)(=O)c2ccc(N)cc2)nc(OC)n1 [SULFADIMETHOXINE],Not Active,Not Active,Not Active,Not Active,Not Active,Not Active,Not Active,Not Active,Not Active,Not Active,Not Active,Not Active,Not Active,,,,,,,
CC(C)NCC(O)COc1cccc2ccccc12 (configuration not stated) [PROPRANOLOL],Not Active,Not Active,,Not Active,,Not Active,Not Active,Not Active,,,Not Active,,,,,,,,,
CC(C)c1nc(CN(C)C(=O)N[C@H](C(=O)N[C@@H](Cc2ccccc2)C[C@H](O)[C@H](Cc2ccccc2)NC(=O)OCc2cncs2)C(C)C)cs1 [RITONAVIR],Not Active,,Not Active,Not Active,Not Active,Not Active,Not Active,Not Active,,,Not Active,Not Active,Not Active,,,,,,,
Clc1ccc2c(c1)C(N1CCNCC1)=Nc1ccccc1O2 [AMOXAPINE],Not Active,Not Active,,,,Not Active,Not Active,,,,Not Active,,,306 nM,150 nM,,,,,
CC(C)(C)c1ccc(C(O)CCCN2CCC(C(O)(c3ccccc3)c3ccccc3)CC2)cc1 (configuration not stated) [TERFENADINE],,Not Active,,Not Active,,Not Active,Not Active,Not Active,Not Active,Not Active,Not Active,Not Active,Not Active,,,,,6120 nM,,
O=C(c1ccc(OCCN2CCCCC2)cc1)c1c(-c2ccc(O)cc2)sc2cc(O)ccc12 [RALOXIFENE],,Not Active,,,,Not Active,Not Active,,Not Active,Not Active,Not Active,Not Active,Not Active,973 nM,478 nM,,,3670 nM,,
COc1cc2c(c(OC)c1OC)-c1ccc(OC)c(=O)cc1[C@@H](NC(C)=O)CC2 [COLCHICINE],Not Active,Not Active,,Not Active,Not Active,Not Active,Not Active,Not Active,Not Active,Not Active,Not Active,,,,,,,,,
